Measurements: US5032577A, “Peptidylaminodiols” (Abbott Laboratories, priority 1987, dated 1991)
pIC50: −log10 of the molar value. Where a name gives a salt, the structure may show the parent alone.

Biological target: T1, human renal renin (Homo sapiens, UniProt P00797)
T1 construct: human renal renin, free from acid proteolytic activity; from tissue
T1 sequence (P00797 67-406): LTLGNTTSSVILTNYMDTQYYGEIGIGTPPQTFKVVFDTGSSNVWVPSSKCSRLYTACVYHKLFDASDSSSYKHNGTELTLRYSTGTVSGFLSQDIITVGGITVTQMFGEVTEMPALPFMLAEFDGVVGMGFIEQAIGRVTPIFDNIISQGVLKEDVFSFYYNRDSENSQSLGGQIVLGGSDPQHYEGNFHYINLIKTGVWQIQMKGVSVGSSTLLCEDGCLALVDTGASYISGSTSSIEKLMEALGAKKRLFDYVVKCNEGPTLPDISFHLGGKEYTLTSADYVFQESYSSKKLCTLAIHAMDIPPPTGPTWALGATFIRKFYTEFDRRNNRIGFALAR
Assay: Inhibition of human renal renin in vitro; angiotensin I formed measured by radioimmunoassay
Format: biochemical
Conditions: not given

Question: How did the pIC50 turn out when `CC(C)C[C@H](O)[C@H](O)[C@H](CC1CCCCC1)NC(=O)[C@H](Cc1c[nH]cn1)NC(=O)C(CC(=O)N1CCOCC1)Oc1ccccc1` (single isomer, unassigned) [Example 141] was run?
Answer: 8.26

Question: `CC(C)C[C@H](O)[C@H](O)[C@H](CC1CCCCC1)NC(=O)[C@H](Cc1c[nH]cn1)NC(=O)C(CC(=O)N1CCOCC1)Cc1ccccc1` (single isomer, unassigned) [Example 143] was tested. Which pIC50 did it give?
Answer: 9.52

Question: With `CC(C)C[C@@H](O)[C@H](O)[C@H](CC1CCCCC1)NC(=O)[C@H](Cc1c[nH]cn1)NC(=O)[C@H](Cc1ccccc1)NC(=O)OC(C)(C)C` [Example 17, Boc-Phe-His Amide of 2(S)-Amino-l-cyclohexyl-3(R),4(R)-dihydroxy-6-methylheptane] as the compound, how does the pIC50 read?
Answer: 7.46

Question: How did the pIC50 turn out when `CC(C)C[C@H](O)[C@H](O)[C@H](CC1CCCCC1)NC(=O)[C@H](Cc1c[nH]cn1)NC(=O)[C@H](CC1CCCCC1)NC(=O)CC(C)(C)C` [Example 21, TBA-CHA-His Amide of 2(S)-Amino-l-cyclohexyl-3(R),4(S)-dihydroxy-6-methylheptane] was run?
Answer: 8.70

Question: `CC(=O)N(C)[C@@H](Cc1ccccc1)C(=O)N[C@@H](Cc1c[nH]cn1)C(=O)N[C@@H](CC1CCCCC1)[C@@H](O)[C@@H](O)CC(C)C` [Example 23, Acetyl-N-methylPhe-His Amide of 2(S)-Amino-1-cyclohexyl-3(R),4(S)-dihydroxy-6-methylheptane] was tested. Which pIC50 did it give?
Answer: 8.00

Question: How did the pIC50 turn out when `CC(=O)O[C@@H](Cc1ccccc1)C(=O)N[C@@H](Cc1c[nH]cn1)C(=O)N[C@@H](CC1CCCCC1)[C@@H](O)[C@@H](O)CC(C)C` [Example 24, Ac-Pl-His Amide of 2(S)-Amino-l-cyclohexyl-3(R),4(S)-dihydroxy-6-methylheptane] was run?
Answer: 8.70

Question: With `CC(C)C[C@H](O)[C@H](O)[C@H](CC1CCCCC1)NC(=O)[C@H](Cc1c[nH]cn1)NC(=O)C(Cc1ccccc1)Cc1ccccc1` [Example 27, Dba-His Amide of 2(S)-Amino-l-cyclohexyl-3(R),4(S)-dihydroxy-6-methylhectane] as the compound, how does the pIC50 read?
Answer: 8.15

Question: `CC(C)C[C@H](O)[C@H](O)[C@H](CC1CCCCC1)NC(=O)[C@H](Cc1c[nH]cn1)NC(=O)CCc1ccccc1` [Example 28, Pp-His Amide of 2(S)-Amino-l-cyclohexyl-3(R),4(S)-dihydroxy-6-methylheptane] was tested. Which pIC50 did it give?
Answer: 7.10

Question: How did the pIC50 turn out when `CCOC(=O)N[C@@H](Cc1ccccc1)C(=O)N[C@@H](CC(C)C)C(=O)N[C@@H](CC1CCCCC1)[C@@H](O)[C@@H](O)CC(C)C` [Example 36, Ethoxycarbonyl-phe-Leu Amide of 2(S)-Amino-cyclohexyl-3(R),4(S)-dihydroxy-6-methylheptane] was run?
Answer: 9.40

Question: How did the pIC50 turn out when `CC(C)CC[C@H](O)[C@H](O)[C@H](CC1CCCCC1)NC(=O)[C@H](Cc1c[nH]cn1)NC(=O)[C@H](Cc1ccccc1)NC(=O)CC(C)(C)C` [Example 43, TBA-Phe-His Amide of 2(S)-Amino-1-cyclohexyl-3(R),4(S)-dihydroxy-7-methyloctane] was run?
Answer: 8.30

Question: How did the pIC50 turn out when `CCOC(=O)N[C@@H](Cc1ccccc1)C(=O)N[C@@H](CC(C)C)C(=O)N[C@@H](CC1CCCCC1)[C@@H](O)[C@@H](O)CC` [Example 47, Ethoxycarbonyl-Phe-Leu Amide of 2(S)-Amino-1-cyclohexyl-3(R),4(S)-dihydroxyhexane] was run?
Answer: 9.00

Question: `COc1ccc(C[C@H](N)C(=O)N[C@@H](CC(C)C)C(=O)N[C@@H](CC2CCCCC2)[C@@H](O)[C@@H](O)CC(C)C)cc1` [Example 55, H-(4-OCH3)Phe-Leu Amide of 2(S)-Amino-1-cyclohexyl-3(R),4(S)-dihydroxy-6-methylheptane] was tested. Which pIC50 did it give?
Answer: 8.70

Question: With `COc1ccc(C[C@@H](C(=O)N[C@@H](CC(C)C)C(=O)N[C@@H](CC2CCCCC2)[C@@H](O)[C@@H](O)CC(C)C)N(C)C)cc1` [Example 56, (N,N-Dimethyl,4-methoxy)-Phe-Leu Amide of 2(S)-Amino-1-cyclohexyl-3(R),4(S)-dihydroxy-6-methylheptane] as the compound, how does the pIC50 read?
Answer: 8.26

Question: How did the pIC50 turn out when `CC(C)C[C@H](NC(=O)[C@@H](N)Cc1ccccc1)C(=O)N[C@@H](CC1CCCCC1)[C@@H](O)[C@@H](O)CC(C)C` [Example 57, H-Phe-Leu Amide of 2(S)-Amino-l-cyclohexyl-3(R),4(S)-dihydroxY-6-methylheptane] was run?
Answer: 8.12

Question: `CC(C)C[C@H](NC(=O)[C@H](Cc1ccccc1)NCCC#N)C(=O)N[C@@H](CC1CCCCC1)[C@@H](O)[C@@H](O)CC(C)C` [Example 58, [N-(2-Cyanoethyl)]Phe-Leu Amide of 2(S)-Amino-1-cyclohexyl-3(R),4(S)-dihydroxy-6-methylheptane] was tested. Which pIC50 did it give?
Answer: 8.15

Question: How did the pIC50 turn out when `CC(C)C[C@H](O)[C@H](O)[C@H](CC1CCCCC1)NC(=O)[C@H](Cc1c[nH]cn1)NC(=O)[C@H](Cc1ccccc1)NC(=O)CCNC(=O)OCc1ccccc1` [Example 61, Cbz-β-Ala-Phe-His Amide of 2(S)-Amino-l-cyclohexyl-3(R),4(S)-dihydroxy-6-methylheptane] was run?
Answer: 9.26

Question: With `CC(C)C[C@H](O)[C@H](O)[C@H](CC1CCCCC1)NC(=O)[C@H](Cc1c[nH]cn1)NC(=O)[C@H](Cc1ccccc1)NC(=O)CCN` [Example 62, H-β-Ala-Phe-His Amide of 2(S)-Amino-l-cyclohexyl-3(R), 4(S)-dihydroxy-6-methylheptane Diacetic Acid Salt] as the compound, how does the pIC50 read?
Answer: 8.70

Question: How did the pIC50 turn out when `CC(C)C[C@H](O)[C@H](O)[C@H](CC1CCCCC1)NC(=O)[C@H](Cc1c[nH]cn1)NC(=O)[C@H](Cc1ccccc1)NC(=O)CN(C)C(=O)OCc1ccccc1` [Example 63, Cbz-Sar-phe-His Amide of 2(S)-Amino-l-cyclohexyl-3(R),4(S)-dihydroxy-6-methylheptane] was run?
Answer: 9.35

Question: How did the pIC50 turn out when `CNCC(=O)N[C@@H](Cc1ccccc1)C(=O)N[C@@H](Cc1c[nH]cn1)C(=O)N[C@@H](CC1CCCCC1)[C@@H](O)[C@@H](O)CC(C)C` [Example 64, H-Sar-Phe-His Amide of 2(S)-Amino-l-cyclohexyl-3(R),4(S)-dihydroxy-6-methylheptane Diacetic Acid Salt] was run?
Answer: 8.52

Question: `CC(C)C[C@H](O)[C@H](O)[C@H](CC1CCCCC1)NC(=O)[C@H](Cc1c[nH]cn1)NC(=O)[C@H](Cc1ccccc1)NC(=O)C1CCN(C(=O)OCc2ccccc2)CC1` [Example 67, Cbz-Isonipectoyl-Phe-His Amide of 2(S)-Amino-l-cyclohexyl-3(R),4(S)-dihydroxy-6-methylheptane] was tested. Which pIC50 did it give?
Answer: 9.10

Question: With `CC(C)C[C@H](O)[C@H](O)[C@H](CC1CCCCC1)NC(=O)[C@H](Cc1c[nH]cn1)NC(=O)[C@H](Cc1ccccc1)NC(=O)C1CCNCC1` [Example 68, H-Isonipectoyl-Phe-His Amide of 2(S)-Amino-l-cyclohexyl-3(R),4(S)-dihydroxy-6-methylheptane Diacetic Acid Salt] as the compound, how does the pIC50 read?
Answer: 9.00

Same assay, conditions: human renal renin free from acid proteolytic activity, renin substrate human angiotensinogen, 37° C., pH 6.0

Question: `CC(C)(C)OC(=O)N[C@@H](Cc1ccccc1)C(=O)N[C@@H](Cc1c[nH]cn1)C(=O)N[C@@H](CC1CCCCC1)[C@@H](O)CO` [Example 6, Boc-Phe-His Amides of 3(S)-Amino-4-cyclohexyl-1,2(R)-dihydroxybutane] was tested. Which pIC50 did it give?
Answer: 7.30

Question: With `CC(C)C[C@H](O)[C@H](O)[C@H](CC1CCCCC1)NC(=O)[C@H](Cc1c[nH]cn1)NC(=O)[C@H](Cc1ccccc1)NC(=O)OC(C)(C)C` [Example 15, Boc-Phe-His Amide of 2(S)-Amino-l-cyclohexyl-3(R),4(S)-dihydroxy-6-methylheptane] as the compound, how does the pIC50 read?
Answer: 8.82

Question: `CC(C)C[C@H](O)[C@@H](O)[C@H](CC1CCCCC1)NC(=O)[C@H](Cc1c[nH]cn1)NC(=O)[C@H](Cc1ccccc1)NC(=O)OC(C)(C)C` [Example 16, Boc-Phe-His Amide of 2(S)-Amino-l-cyclohexyl-3(S),4(S)-dihydroxy-6-methylheptane] was tested. Which pIC50 did it give?
Answer: 7.15

Question: With `CC(C)C[C@@H](O)[C@@H](O)[C@H](CC1CCCCC1)NC(=O)[C@H](Cc1c[nH]cn1)NC(=O)[C@H](Cc1ccccc1)NC(=O)OC(C)(C)C` [Example 18, Boc-Phe-His Amide of 2(S)-Amino-l-cyclohexyl-3(S),4(R)-dihydroxy-6-methylheptane] as the compound, how does the pIC50 read?
Answer: 7.02

Question: With `CCOC(=O)N[C@@H](Cc1ccc(OC)cc1)C(=O)N[C@@H](Cc1c[nH]cn1)C(=O)N[C@@H](CC1CCCCC1)[C@@H](O)[C@@H](O)CC(C)C` [Example 22, Ethoxycarbonyl-(OCH3)Tyr-His Amide of 2(S)-Amino-1-cyclohexyl-3(R),4(S)-dihydroxy-6-methylheptane] as the compound, how does the pIC50 read?
Answer: 8.82

Question: How did the pIC50 turn out when `CC(C)C[C@H](NC(=O)OC(C)(C)C)C(=O)N[C@@H](Cc1c[nH]cn1)C(=O)N[C@@H](CC1CCCCC1)[C@@H](O)[C@@H](O)CC(C)C` [Example 31, Boc-Leu-His Amide of 2(S)-Amino-l-cyclohexyl-3(R),4(S)-dihydroxy-6-methylheptane] was run?
Answer: 9.00

Question: With `CC(C)C[C@H](O)[C@H](O)[C@H](CC1CCCCC1)NC(=O)[C@H](C)NC(=O)[C@H](Cc1ccccc1)NC(=O)OC(C)(C)C` [Example 33, Boc-phe-Ala Amide of 2(S)-Amino-l-cyclohexyl-3(R),4(S)-dihydroxy-6-methylheptane] as the compound, how does the pIC50 read?
Answer: 8.30

Question: How did the pIC50 turn out when `CC(C)C[C@H](O)[C@H](O)[C@H](CC1CCCCC1)NC(=O)[C@H](Cc1ccccc1)NC(=O)[C@H](Cc1ccccc1)NC(=O)OC(C)(C)C` [Example 34, Boc-Phe-Phe Amide of 2(S)-Amino-l-cyclohexyl-3(R),4(S)-dihYdroxy-6-methYlheptane] was run?
Answer: 8.82

Question: How did the pIC50 turn out when `CC(C)[C@H](O)[C@H](O)[C@H](CC1CCCCC1)NC(=O)[C@H](Cc1c[nH]cn1)NC(=O)[C@H](Cc1ccccc1)NC(=O)OC(C)(C)C` [Example 46, Boc-Phe-His Amide of 2(S)-Amino-l-cyclohexyl-3(R),4(S)-dihydroxy-5-methylhexane] was run?
Answer: 8.82

Question: `C[C@H](O)[C@H](O)[C@H](CC1CCCCC1)NC(=O)[C@H](Cc1c[nH]cn1)NC(=O)[C@H](Cc1ccccc1)NC(=O)OC(C)(C)C` [Example 49, Boc-Phe-His Amide of 2(S)-Amino-l-cyclohexyl-3(R),4(S)-dihydroxypentane] was tested. Which pIC50 did it give?
Answer: 8.70
